Tested on: 282377-053-R-J1-PDC complex spheroid viability
Experiment: Anticancer human tumor 282377-053-R-J1-PDC patient-derived colon adenocarcinoma cell line growth inhibition [POLQ]
Conditions: for viability, T/C: stronger effect = lower value
Protocol: Multicellular complex tumor spheroid response to Polymerase (POL) inhibitors (novobiocin, ART-558, RP6685) in combination with a variety of drugs and investigational agents in selected tumor cell lines
The POL inhibitors (novobiocin, ART-558, and RP6685) were evaluated both individually and in combination with standard of care and investigational anticancer small molecules within a complex spheroid model of solid tumors. . Complex spheroids include a stromal component modeled by human endothelial cells (HUVEC) and fibroblasts modeled by human mesenchymal stem cells (MSCs). The concentration ranges selected for each drug and investigational agent were based upon clinically achievable concentrations if the clinical Cmax of the agent was known.
Compounds. The drugs and investigational agents: novobiocin (NSC847541), ART-558 (NSC835418), RP-6685 (NSC848927), peposertib (NSC802822), ceralasertib (NSC780249), elimusertib (NSC800525), camonsertib (NSC841442), AZD-1390 (NSC803789), olaparib (NSC753686), talazoparib (NSC767125), rucaparib (NSC756644), sotorasib (NSC818433), MRTX-1133 (NSC836407), SN-38 (NSC673596), topotecan (NSC609699), epotoside (NSC141540), doxorubicin (NSC123127), gemcitabine (NSC613327), 5-fluorouracil (NSC19893), paclitaxel (NSC125973), vemurafenib (NSC761431), MSA-2 (NSC828583), SN-011 (NSC837082), adavosertib (NSC754352), prexasertib (NSC758257), carboplatin (NSC241240) and oxaliplatin (NSC266046), were obtained from the National Cancer Institute (NCI) Developmental Therapeutics Program Chemical Repository (21). The FDA-approved anticancer drug set is available from the Developmental Therapeutics Program at https://dtp.cancer.gov/organization/dscb/obtaining/. […] The stock solutions were prepared in dimethyl sulfoxide (DMSO, Sigma-Aldrich, St. Louis, MO, cat. D2650), except for the platinum compounds which were prepared in saline (Quality Biological, Gaithersburg, MD, cat. 114-055-101), at 800-fold the tested concentration and stored at -70 degrees C prior to their use. All drugs and investigational agents were tested over a range starting from a high concentration at or near the clinical Cmax and decreasing in half-log increments. If the clinical Cmax for an agent had not been determined, the highest concentration tested was 10 microM, except for SN-38, which was tested at a high concentration of 1 microM.
Cell Culture. All cells were maintained in an incubator at 37 degrees C and 5% CO2 with 95% humidity. The PDC lines were cultured according to standard operating procedures established by the NCI PDMR (https://pdmr.cancer.gov). Table 3 of the manuscript, lists the cell lines along with the number of the three cell types plated to form the mct-spheroids and media for tumor cell growth. After thawing, all PDC lines, except 997537-175-T-J1-PDC and 415267-285-R-J2-PDC, were cultured in Matrigel-coated flasks prepared with a working solution of 1X Ham's F-12 nutrient mix, without supplementation (Thermo Fisher Scientific, cat. 11765054), 100 U/mL penicillin-streptomycin (Thermo Fisher Scientific, cat. 15140122), and 2.5% Matrigel (Corning Inc., Corning, NY, cat. 354248) for the first three passages. The two PDC lines 997537-175-T-J1-PDC and 415267-285-R-J2-PDC were cultured on uncoated flasks. The 857933-349-R-J2-PDC line was cultured in 6C/Colon 1B media containing advanced DMEM/F-12 (Thermo Fisher Scientific, cat. 12634028), 10 mM HEPES (Thermo Fisher Scientific, cat. 15630080), 1X GlutaMAX supplement (Thermo Fisher Scientific, cat. 35050061), 0.1 mg/mL primocin (InvivoGen, San Diego, CA, cat. ant-pm-2), 10% defined fetal bovine serum, heat inactivated (HyClone Laboratories Inc., Logan, UT, cat. SH30070.03HI), 50% L-WRN conditioned media (ATCC, cat. CRL-3276), 1.25 mM N-Acetyl-L-cysteine (Sigma-Aldrich, cat. A9165), 10 mM nicotinamide (Sigma-Aldrich, cat. N0636), 1X B-27 supplement (Thermo Fisher Scientific, cat. 17504044), 1X N-2 supplement (Thermo Fisher Scientific, cat. […]

[1] = curve of first compound, second compound 0.0316 µM
[2] = curve of first compound, second compound 0.1 µM
[3] = curve of first compound, second compound 0.316 µM
[4] = curve of first compound, second compound 1 µM
[5] = curve of first compound, second compound 3.16 µM
[6] = curve of first compound, second compound 10 µM
[7] = second compound 0.0316 µM, first compound 0.0316 µM
[8] = second compound 0.0316 µM, first compound 0.1 µM
[9] = second compound 0.0316 µM, first compound 0.316 µM
[10] = second compound 0.0316 µM, first compound 1 µM
[11] = second compound 0.0316 µM, first compound 3.16 µM
[12] = second compound 0.0316 µM, first compound 10 µM
[13] = second compound 0.1 µM, first compound 0.0316 µM
[14] = second compound 0.1 µM, first compound 0.1 µM
[15] = second compound 0.1 µM, first compound 0.316 µM
[16] = second compound 0.1 µM, first compound 1 µM
[17] = second compound 0.1 µM, first compound 3.16 µM
[18] = second compound 0.1 µM, first compound 10 µM
[19] = second compound 0.316 µM, first compound 0.0316 µM
[20] = second compound 0.316 µM, first compound 0.1 µM
[21] = second compound 0.316 µM, first compound 0.316 µM
[22] = second compound 0.316 µM, first compound 1 µM
[23] = second compound 0.316 µM, first compound 3.16 µM
[24] = second compound 0.316 µM, first compound 10 µM
[25] = second compound 1 µM, first compound 0.0316 µM
[26] = second compound 1 µM, first compound 0.1 µM
[27] = second compound 1 µM, first compound 0.316 µM
[28] = second compound 1 µM, first compound 1 µM
[29] = second compound 1 µM, first compound 3.16 µM
[30] = second compound 1 µM, first compound 10 µM
[31] = second compound 3.16 µM, first compound 0.0316 µM
[32] = second compound 3.16 µM, first compound 0.1 µM
[33] = second compound 3.16 µM, first compound 0.316 µM
[34] = second compound 3.16 µM, first compound 1 µM
[35] = second compound 3.16 µM, first compound 3.16 µM
[36] = second compound 3.16 µM, first compound 10 µM
[37] = second compound 10 µM, first compound 0.0316 µM
[38] = second compound 10 µM, first compound 0.1 µM
[39] = second compound 10 µM, first compound 0.316 µM
[40] = second compound 10 µM, first compound 1 µM
[41] = second compound 10 µM, first compound 3.16 µM
[42] = second compound 10 µM, first compound 10 µM
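Note: spheroids exposed to compounds for seven days.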
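Throughout, for viability, T/C: 100% = DMSO vehicle control viability.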

Compound: COc1cc(C2c3cc4c(cc3C(OC3OC5COC(C)OC5C(O)C3O)C3COC(=O)C23)OCO4)cc(OC)c1O (centres undefined) + Cc1cccc(N(C)C(=O)C2C(O)CCN2c2nc(C)cc(C(F)(F)F)c2C#N)c1
- IC50 [1]: > 10 µM
- IC50 [2]: > 10 µM
- IC50 [3]: > 10 µM
- IC50 [4]: > 10 µM
- IC50 [5]: > 10 µM
- IC50 [6]: 7.51 µM
- viability, T/C [7]: 139%
- viability, T/C [8]: 104%
- viability, T/C [9]: 128%
- viability, T/C [10]: 109%
- viability, T/C [11]: 84.8%
- viability, T/C [12]: 61.4%
- viability, T/C [13]: 112%
- viability, T/C [14]: 105%
- viability, T/C [15]: 123%
- viability, T/C [16]: 88.7%
- viability, T/C [17]: 89.1%
- viability, T/C [18]: 59.1%
- viability, T/C [19]: 108%
- viability, T/C [20]: 98.2%
- viability, T/C [21]: 119%
- viability, T/C [22]: 116%
- viability, T/C [23]: 91%
- viability, T/C [24]: 64.2%
- viability, T/C [25]: 107%
- viability, T/C [26]: 99%
- viability, T/C [27]: 123%
- viability, T/C [28]: 98.1%
- viability, T/C [29]: 78.7%
- viability, T/C [30]: 56.9%
- viability, T/C [31]: 103%
- viability, T/C [32]: 102%
- viability, T/C [33]: 96.2%
- viability, T/C [34]: 90.1%
- viability, T/C [35]: 86.2%
- viability, T/C [36]: 53.9%
- viability, T/C [37]: 103%
- viability, T/C [38]: 100%
- viability, T/C [39]: 96.5%
- viability, T/C [40]: 78.2%
- viability, T/C [41]: 62.1%
- viability, T/C [42]: 46%

Compound: Nc1ccc(C#CCN(C(=O)Cc2ncc(C(F)(F)F)cc2C(F)(F)F)c2ccc(F)cc2)nn1
- viability, T/C (compound 0.0316 µM): 92.4% [middle of 13 runs]
- viability, T/C (compound 1 µM): 99.5% [middle of 12 runs]
- viability, T/C (compound 3.16 µM): 102% [middle of 13 runs]
- viability, T/C (compound 10 µM): 114% [middle of 13 runs]
- IC50 (compound alone, run of 11/06/2023): > 10 µM

Compound: C#Cc1c(F)ccc2cc(O)cc(-c3ncc4c(N5CC6CCC(C5)N6)nc(OCC56CCCN5CC(F)C6)nc4c3F)c12 (centres undefined) + Cc1cccc(N(C)C(=O)C2C(O)CCN2c2nc(C)cc(C(F)(F)F)c2C#N)c1
- IC50 [1]: > 10 µM
- IC50 [2]: > 10 µM
- IC50 [3]: > 10 µM
- IC50 [4]: > 10 µM
- IC50 [5]: > 10 µM
- IC50 [6]: > 10 µM
- viability, T/C [7]: 105%
- viability, T/C [8]: 84%
- viability, T/C [9]: 77.4%
- viability, T/C [10]: 89.2%
- viability, T/C [11]: 68.6%
- viability, T/C [12]: 86.9%
- viability, T/C [13]: 84.1%
- viability, T/C [14]: 82.4%
- viability, T/C [15]: 112%
- viability, T/C [16]: 84.8%
- viability, T/C [17]: 106%
- viability, T/C [18]: 81%
- viability, T/C [19]: 91.9%
- viability, T/C [20]: 79.2%
- viability, T/C [21]: 105%
- viability, T/C [22]: 93.6%
- viability, T/C [23]: 85.2%
- viability, T/C [24]: 66.2%
- viability, T/C [25]: 104%
- viability, T/C [26]: 80.4%
- viability, T/C [27]: 86%
- viability, T/C [28]: 81.3%
- viability, T/C [29]: 86.9%
- viability, T/C [30]: 70.4%
- viability, T/C [31]: 91.9%
- viability, T/C [32]: 97.6%
- viability, T/C [33]: 73.3%
- viability, T/C [34]: 75%
- viability, T/C [35]: 77.9%
- viability, T/C [36]: 74.3%
- viability, T/C [37]: 81.7%
- viability, T/C [38]: 82.4%
- viability, T/C [39]: 82.3%
- viability, T/C [40]: 68.5%
- viability, T/C [41]: 70.6%
- viability, T/C [42]: 81%

From PubChem BioAssay AID1963852 (Molecular Pharmacology Branch, DTP, NCI, 2024)
